Measurements published in paper PMC6214812, “The mycosporine-like amino acids porphyra-334 and shinorine are antioxidants and direct antagonists of Keap1-Nrf2 binding” (Biochimie, 2018).
Like-named read-outs stand apart in the source and are kept apart here.

Experiments:
[1] = target: T1, Kelch-like ECH-associated protein 1 (Keap1) (Homo sapiens, UniProt Q14145); test: FP competition with FITC-(βAla)-DEETGEF-OH; thermal shift (ΔTm […] °C at […]); format: binding
T1 construct: Kelch-repeat domain
T1 sequence (Q14145 321-609 limits assumed): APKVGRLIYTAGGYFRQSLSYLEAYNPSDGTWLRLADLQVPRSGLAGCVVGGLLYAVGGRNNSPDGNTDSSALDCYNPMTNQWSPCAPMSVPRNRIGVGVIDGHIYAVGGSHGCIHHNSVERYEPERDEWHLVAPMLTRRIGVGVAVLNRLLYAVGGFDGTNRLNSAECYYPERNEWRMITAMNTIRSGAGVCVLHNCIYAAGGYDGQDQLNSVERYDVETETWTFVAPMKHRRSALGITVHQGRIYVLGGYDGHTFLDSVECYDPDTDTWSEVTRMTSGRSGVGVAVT

[2] = target: T1, Kelch-like ECH-associated protein 1 (Keap1); test: as above; format: binding; remark: listed apart in the source

IC50 [1] [µM]	IC50 [2] [µM]	Compound
~100	–	COC1=C(NCC(=O)O)CC(O)(CO)CC1=NC(C(=O)O)C(C)O (centres unmarked) [porphyra-334]
–	~100	COC1=C(NCC(=O)O)C[C@@](O)(CO)C/C1=N\[C@@H](CO)C(=O)O [shinorine]
